Laboratory results: patent US11434232B2, “ATR inhibitor and application thereof” (WUXI BIOCITY BIOPHARMACEUTICS CO., LTD., priority 2018, dated 2022)

Assays:
tumor cell line LoVo = test: In vitro cell viability test (CellTiter-Glo), LoVo cell proliferation inhibition; type: cell-based; settings: Homo sapiens
Description: In this experiment, inhibitory effect of the compounds on cell proliferation was investigated by testing influence on cell viability in vitro in tumor cell line LoVo.
CellTiter-Glo Luminescence Cell Viability Test
The following protocols were performed according to instruction of PromegaCellTiter-Glo Luminescence cell viability test Kit (Promega-G7573). • (1) Thawing CellTiter-Glo buffer and allowing it to acclimate to room temperature. • (2) Allowing CellTiter-Glo substrate to acclimate to room temperature. • (3) Adding CellTiter-Glo buffer to a bottle of CellTiter-Glo substrate to dissolve the substrate to prepare CellTiter-Glo working solution. • (4) Vortexing slowly to full dissolution. • (5) Removing the cell culture plate and balancing it to room temperature for 30 min. • (6) Adding 50 μL (equivalent to half volume of cell culture medium in each well) of CellTiter-Glo working solution to each well, wrapping the cell plate with aluminum foil to protect from light. • (7) Shaking the culture plate on an orbital shaker for 2 min to induce cell lysis. • (8) Placing the culture plate at room temperature for 10 min to stabilize the luminescence signal. • (9) Detecting the luminescence signal on SpectraMax i3× of Molecular Devices plate reader. Data Analysis
The following formula was used to calculate the inhibition rate of the test compound (Inhibition rate, IR): IR(%)=(1−(RLU Compound−RLU Blank control)/(RLU Vehicle control−RLU Blank control))*100%.
The inhibition rates of different concentrations of compounds were calculated in Excel, and GraphPad Prism software was used to make the inhibition curve and calculate relevant parameters, including the minimum inhibition rate, the maximum inhibition rate and IC50.

human ATR kinase = human ATR kinase (Homo sapiens (Human), UniProt Q13535); test: In vitro evaluation of inhibitory activity on human ATR kinase (HTRF, ATR/ATRIP(h), GST-cMyc-p53 substrate); type: biochemical; settings: 50 nM GST-cMyc-p53, 30 min room temperature
Description: IC50 values were determined to evaluate the inhibitory activity of the tested compounds on human ATR kinase.
ATR/ATRIP(h) was incubated in assay buffer containing 50 nM GST-cMyc-p53 and Mg/ATP (according to concentration required). The reaction was initiated by adding Mg/ATP mixture. After incubating for 30 min at room temperature, a stop solution containing EDTA to was added to terminate the reaction. Finally, detecting buffer containing d^2-labeled anti-GST monoclonal antibody and europium-labeled anti-phospho Ser15 antibody against phosphorylated p^53 were added. Then the plate was read in time-resolved fluorescence mode and homogeneous time resolution was performed.
The fluorescence (HTRF) signal was determined according to the formula HTRF=10000×(Em665 nm/Em620 nm).
IC50 data was analyzed using XLFit version 5.3 (ID Business Solutions). Non-linear regression analysis was used to fit the sigmoidal dose response (variable slope) curve.

[1] = Pharmacokinetic properties in vivo in female Balb/c Nude mice; set-up: species or system mouse
Description: Experimental method: The purpose of this study was to determine the pharmacokinetic parameters of the compounds and calculate the oral bioavailability in female Balb/c Nude mice.
The project involved 6 female Balb/c Nude mice. 3 mice were administered intravenously at a dose of 1 mg/kg, and plasma samples were collected at 0 h (before administration) and 0.0833, 0.25, 0.5, 1, 2, 4, 6, 8 and 24 h after administration, other 3 mice were given by oral gavage at a dose of 10 mg/kg or 25 mg/kg, and plasma samples were collected at 0 h (before dosing) and 0.5, 1, 2, 3, 4, 6, 8, 24 h after administration. Then LC/MS/MS analysis was performed for the collected samples and data was collected. The collected analysis data was calculated for relevant pharmacokinetic parameters with Phoenix WinNonlin 6.2.1 software.

[2] = mouse, plasma, 10 mg/kg oral gavage

Sequence of human ATR kinase (Q13535 whole entry): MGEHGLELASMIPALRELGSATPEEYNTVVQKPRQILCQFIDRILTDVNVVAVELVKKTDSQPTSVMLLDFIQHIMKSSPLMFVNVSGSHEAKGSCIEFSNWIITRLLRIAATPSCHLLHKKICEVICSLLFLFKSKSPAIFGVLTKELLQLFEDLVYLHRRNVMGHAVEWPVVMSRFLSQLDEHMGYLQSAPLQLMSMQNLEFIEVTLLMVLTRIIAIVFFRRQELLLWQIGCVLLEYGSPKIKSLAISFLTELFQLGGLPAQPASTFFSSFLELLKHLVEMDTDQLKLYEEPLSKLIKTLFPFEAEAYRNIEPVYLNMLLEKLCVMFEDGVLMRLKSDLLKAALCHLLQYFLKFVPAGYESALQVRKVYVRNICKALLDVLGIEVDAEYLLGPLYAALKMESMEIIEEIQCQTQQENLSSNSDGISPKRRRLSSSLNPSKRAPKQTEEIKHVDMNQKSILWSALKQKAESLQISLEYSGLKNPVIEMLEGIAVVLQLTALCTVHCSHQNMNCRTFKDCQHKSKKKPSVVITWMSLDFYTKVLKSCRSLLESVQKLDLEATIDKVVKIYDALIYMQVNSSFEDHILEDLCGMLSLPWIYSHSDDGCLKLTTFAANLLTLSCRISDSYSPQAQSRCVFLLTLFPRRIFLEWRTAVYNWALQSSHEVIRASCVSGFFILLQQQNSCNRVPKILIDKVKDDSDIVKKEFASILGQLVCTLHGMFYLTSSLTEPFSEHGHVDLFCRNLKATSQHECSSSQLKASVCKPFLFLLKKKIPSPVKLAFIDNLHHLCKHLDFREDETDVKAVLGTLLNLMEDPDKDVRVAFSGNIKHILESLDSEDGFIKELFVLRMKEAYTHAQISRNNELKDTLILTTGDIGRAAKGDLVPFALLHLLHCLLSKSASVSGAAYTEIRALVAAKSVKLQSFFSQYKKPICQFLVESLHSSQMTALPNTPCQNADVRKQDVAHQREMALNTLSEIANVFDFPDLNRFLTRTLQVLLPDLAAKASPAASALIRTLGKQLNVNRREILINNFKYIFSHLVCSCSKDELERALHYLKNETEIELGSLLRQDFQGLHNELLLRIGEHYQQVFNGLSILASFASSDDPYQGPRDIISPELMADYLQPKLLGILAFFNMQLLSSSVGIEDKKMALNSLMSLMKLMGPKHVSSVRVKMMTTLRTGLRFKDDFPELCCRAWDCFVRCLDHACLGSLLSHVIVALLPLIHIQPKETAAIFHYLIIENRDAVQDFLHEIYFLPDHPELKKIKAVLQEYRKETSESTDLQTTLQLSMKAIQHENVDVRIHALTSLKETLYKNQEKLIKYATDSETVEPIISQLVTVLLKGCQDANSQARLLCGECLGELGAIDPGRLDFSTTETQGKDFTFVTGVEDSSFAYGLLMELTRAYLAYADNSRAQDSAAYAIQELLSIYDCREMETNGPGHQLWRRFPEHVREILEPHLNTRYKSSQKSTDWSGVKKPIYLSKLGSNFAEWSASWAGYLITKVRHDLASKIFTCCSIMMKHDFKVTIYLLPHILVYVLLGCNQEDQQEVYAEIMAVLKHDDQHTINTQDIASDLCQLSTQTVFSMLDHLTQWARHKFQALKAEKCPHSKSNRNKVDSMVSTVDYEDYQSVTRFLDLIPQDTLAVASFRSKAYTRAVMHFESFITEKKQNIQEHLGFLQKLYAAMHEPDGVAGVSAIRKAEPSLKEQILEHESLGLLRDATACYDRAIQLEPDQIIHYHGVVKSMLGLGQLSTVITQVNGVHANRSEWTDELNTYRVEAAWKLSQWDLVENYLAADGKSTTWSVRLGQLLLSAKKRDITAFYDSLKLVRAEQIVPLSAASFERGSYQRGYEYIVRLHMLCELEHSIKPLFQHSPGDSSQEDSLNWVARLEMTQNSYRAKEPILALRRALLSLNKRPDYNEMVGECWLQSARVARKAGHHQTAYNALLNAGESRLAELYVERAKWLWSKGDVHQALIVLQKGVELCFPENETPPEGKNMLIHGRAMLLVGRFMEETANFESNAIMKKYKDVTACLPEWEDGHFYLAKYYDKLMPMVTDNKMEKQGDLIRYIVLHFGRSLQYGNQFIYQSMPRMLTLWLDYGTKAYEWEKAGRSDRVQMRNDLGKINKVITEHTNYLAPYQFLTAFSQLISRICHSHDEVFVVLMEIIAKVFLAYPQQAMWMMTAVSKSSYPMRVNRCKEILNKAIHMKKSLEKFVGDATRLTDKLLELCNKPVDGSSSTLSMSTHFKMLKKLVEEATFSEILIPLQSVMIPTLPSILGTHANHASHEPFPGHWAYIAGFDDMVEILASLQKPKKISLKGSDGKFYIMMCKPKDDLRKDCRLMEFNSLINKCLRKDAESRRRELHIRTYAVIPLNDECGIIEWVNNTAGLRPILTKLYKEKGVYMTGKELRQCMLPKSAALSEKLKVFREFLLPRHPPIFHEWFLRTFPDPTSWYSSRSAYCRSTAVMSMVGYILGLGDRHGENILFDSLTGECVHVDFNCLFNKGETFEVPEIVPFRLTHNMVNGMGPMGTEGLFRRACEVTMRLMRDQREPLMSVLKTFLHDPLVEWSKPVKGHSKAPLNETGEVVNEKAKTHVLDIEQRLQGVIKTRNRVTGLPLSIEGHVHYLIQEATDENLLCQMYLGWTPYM
Sequence of human ATR kinase (Q8WXE1 whole entry partner): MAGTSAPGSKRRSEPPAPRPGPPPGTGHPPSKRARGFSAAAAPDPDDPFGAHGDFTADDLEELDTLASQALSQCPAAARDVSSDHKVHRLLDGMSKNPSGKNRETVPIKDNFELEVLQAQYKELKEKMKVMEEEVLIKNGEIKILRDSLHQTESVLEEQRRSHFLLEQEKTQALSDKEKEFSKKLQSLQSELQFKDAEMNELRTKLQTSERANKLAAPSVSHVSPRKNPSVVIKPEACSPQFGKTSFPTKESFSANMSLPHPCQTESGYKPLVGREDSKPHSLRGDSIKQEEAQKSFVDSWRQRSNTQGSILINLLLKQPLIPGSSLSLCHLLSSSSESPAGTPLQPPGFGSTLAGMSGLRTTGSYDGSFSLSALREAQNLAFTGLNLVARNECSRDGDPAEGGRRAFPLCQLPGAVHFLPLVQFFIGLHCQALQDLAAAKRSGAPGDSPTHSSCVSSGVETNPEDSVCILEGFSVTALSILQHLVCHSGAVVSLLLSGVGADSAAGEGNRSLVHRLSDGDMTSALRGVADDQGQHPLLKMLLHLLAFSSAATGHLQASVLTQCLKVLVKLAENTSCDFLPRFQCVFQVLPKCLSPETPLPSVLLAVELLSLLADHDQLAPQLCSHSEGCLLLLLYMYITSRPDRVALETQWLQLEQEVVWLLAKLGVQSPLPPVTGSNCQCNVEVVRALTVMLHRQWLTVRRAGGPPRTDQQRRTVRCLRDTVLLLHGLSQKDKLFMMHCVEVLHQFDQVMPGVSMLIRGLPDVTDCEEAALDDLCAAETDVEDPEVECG

| IC50 (human ATR kinase) [nM] | SMILES | further results |
| --- | --- | --- |
|  | C[C@@H]1COCCN1c1cc(C2([S@](C)(=N)=O)CC2)nc(-c2ccnc3[nH]ccc23)n1 [AZD6738, reference compound] | IC50 (tumor cell line LoVo): 820 nM |
| 119 | C[C@@H]1COCCN1c1cc(-c2cccc3[nH]ccc23)nc(-c2ccnn2C)c1 [WX01] |  |
| 72 | C[C@@H]1COCCN1c1cc(-c2ccnn2C)nc(-c2cccc3[nH]ccc23)n1 [WX02] |  |
| 72 | Cc1cc(-c2cc(N3CCOC[C@H]3C)nc(-c3cccc4[nH]ccc34)n2)n(C)n1 [WX03] |  |
| 91 | C[C@@H]1COCCN1c1nc(-c2cccc3[nH]ccc23)cc(-c2ccnn2C)n1 [WX04] |  |
| 53 | CCn1nccc1-c1cc(-c2cccc3[nH]ccc23)nc(N2CCOC[C@H]2C)n1 [WX05] |  |
| 245 | C[C@@H]1COCCN1c1nc(-c2ccnc3[nH]ccc23)cc(-c2ccnn2C)n1 [WX06] |  |
| 75 | Cc1cnn(C)c1-c1cc(-c2ccnc3[nH]ccc23)nc(N2CCOC[C@H]2C)n1 [WX07] |  |
| 126 | CCn1nccc1-c1cc(-c2ccnc3[nH]ccc23)nc(N2CCOC[C@H]2C)n1 [WX08] |  |
| 369 | C[C@@H]1COCCN1c1nc(-c2cc(F)cc3[nH]ccc23)cc(-c2ccnn2C)n1 [WX09] |  |
| 80 | Cc1cnn(C)c1-c1cc(-c2cc(F)cc3[nH]ccc23)nc(N2CCOC[C@H]2C)n1 [WX10] |  |
| 191 | CCn1nccc1-c1cc(-c2cc(F)cc3[nH]ccc23)nc(N2CCOC[C@H]2C)n1 [WX11] |  |
| 41 | Cc1cnn(C)c1-c1cc(-c2cccc3[nH]ccc23)nc(N2CCOC[C@H]2C)n1 [WX12] |  |
| 24 | Cc1cnn(C)c1-c1cc(N2CCOC[C@H]2C)nc(-c2cccc3[nH]ccc23)n1 [WX13] |  |
| 50 | CCn1nccc1-c1cc(N2CCOC[C@H]2C)nc(-c2cccc3[nH]ccc23)n1 [WX14] |  |
| 97 | Cc1cc(-c2cc(N3CCOC[C@H]3C)nc(-c3ccnc4[nH]ccc34)n2)n(C)n1 [WX16] |  |
| 12 | Cc1cnn(C)c1-c1cc(N2CCOC[C@H]2C)nc(-c2ccnc3[nH]ccc23)n1 [WX17] |  |
| 83 | CCn1nccc1-c1cc(N2CCOC[C@H]2C)nc(-c2ccnc3[nH]ccc23)n1 [WX18] |  |
| 81 | C[C@@H]1COCCN1c1cc(-c2ccnn2C)nc(-c2cc(F)cc3[nH]ccc23)n1 [WX19] |  |
| 69 | Cc1cc(-c2cc(N3CCOC[C@H]3C)nc(-c3cc(F)cc4[nH]ccc34)n2)n(C)n1 [WX20] |  |
| 27 | Cc1cnn(C)c1-c1cc(N2CCOC[C@H]2C)nc(-c2cc(F)cc3[nH]ccc23)n1 [WX21] |  |
| 65 | CCn1nccc1-c1cc(N2CCOC[C@H]2C)nc(-c2cc(F)cc3[nH]ccc23)n1 [WX22] |  |
| 115 | Cc1n[nH]c(C)c1-c1cc(N2CCOC[C@H]2C)nc(-c2ccnc3[nH]ccc23)n1 [WX23] |  |
| 18 | Cc1nn(C)c(C)c1-c1cc(N2CCOC[C@H]2C)nc(-c2ccnc3[nH]ccc23)n1 [WX24] |  |
| 92 | Cc1nn(C)cc1-c1cc(N2CCOC[C@H]2C)nc(-c2ccnc3[nH]ccc23)n1 [WX25] |  |
| 123 | Cc1c(-c2cc(N3CCOC[C@H]3C)nc(-c3ccnc4[nH]ccc34)n2)cnn1C [WX26] |  |
| 123 | C[C@@H]1COCCN1c1cc(-c2cn(C)nc2C(F)(F)F)nc(-c2ccnc3[nH]ccc23)n1 [WX27] |  |

| IC50 (human ATR kinase) [nM] | SMILES | further results |
| --- | --- | --- |
| 47 | Cc1noc(C)c1-c1cc(N2CCOC[C@H]2C)nc(-c2ccnc3[nH]ccc23)n1 [WX28] |  |
| 96 | C[C@@H]1COCCN1c1cc(-c2cnn(C)c2CO)nc(-c2ccnc3[nH]ccc23)n1 [WX29] |  |
| 35 | Cc1noc(C)c1-c1cc(-c2ccnc3[nH]ccc23)nc(N2CCOC[C@H]2C)c1 [WX30] |  |
| 39 | Cc1cnn(C)c1-c1cc(-c2ccnc3[nH]ccc23)nc(N2CCOC[C@H]2C)c1 [WX31] |  |
| 35 | Cc1n[nH]c(C)c1-c1cc(-c2ccnc3[nH]ccc23)nc(N2CCOC[C@H]2C)c1 [WX32] |  |
| 198 | C[C@@H]1COCCN1c1cc(-c2ccnn2C)cc(-c2ccnc3[nH]ccc23)n1 [WX33] |  |
| 69 | Cc1nnn(C)c1-c1cc(N2CCOC[C@H]2C)nc(-c2ccnc3[nH]ccc23)n1 [WX34] | AUC(0-t) ([1]; mouse, plasma, 1 mg/kg IV): 0.787 µM·h; clearance ([1]; mouse, plasma, 1 mg/kg IV): 53.9 mL/min/kg; half-life ([1]; mouse, plasma, 1 mg/kg IV): 1.22 h; C0 ([1]; mouse, plasma, 1 mg/kg IV, drug concentration at 0 min): 1260 nM; Vd ([1]; mouse, plasma, 1 mg/kg IV, read-out: Vdss): 3.72 L/kg; AUC(0-t) [1, 2]: 5.68 µM·h; Cmax [1, 2]: 2860 nM; half-life [1, 2]: 1.16 h; F ([1]; oral bioavailability, 10 mg/kg oral vs 1 mg/kg IV): 71.7% |
| 19 | Cc1nnn(C)c1-c1cc(N2CCOC[C@H]2C)nc(-c2cccc3[nH]ccc23)n1 [WX35] |  |
| 14 | Cc1nnn(C)c1-c1cc(N2CCOC[C@H]2C)nc(-c2cc(F)cc3[nH]ccc23)n1 [WX36] |  |
| 16 | Cc1nnn(C)c1-c1cc(N2CCOC[C@H]2C)nc(-c2cc(CO)cc3[nH]ccc23)n1 [WX37] |  |
| 78 | Cc1nnn(C)c1-c1cc(-c2cc(CO)cc3[nH]ccc23)nc(N2CCOC[C@H]2C)c1 [WX38] |  |
| 42 | Cc1nnn(C)c1-c1cc(-c2ccnc3[nH]ccc23)nc(N2CCOC[C@H]2C)c1 [WX39] |  |
| 15 | COc1cc(C)c(-c2cc(N3CCOC[C@H]3C)nc(-c3ccnc4[nH]ccc34)n2)cn1 [WX40] |  |
| 78 | Cc1nc(F)ccc1-c1cc(N2CCOC[C@H]2C)nc(-c2ccnc3[nH]ccc23)n1 [WX41] |  |
| 65 | COCc1cnn(C)c1-c1cc(N2CCOC[C@H]2C)nc(-c2ccnc3[nH]ccc23)n1 [WX43] |  |
| 65 | Cc1ncn(C)c1-c1cc(N2CCOC[C@H]2C)nc(-c2ccnc3[nH]ccc23)n1 [WX44] |  |
| 64 | Cc1nnn(C2CC2)c1-c1cc(N2CCOC[C@H]2C)nc(-c2ccnc3[nH]ccc23)n1 [WX47] | IC50 (tumor cell line LoVo): 760 nM |
| 105 | Cc1nnc(C)n1-c1cc(-c2ccnc3[nH]ccc23)nc(N2CCOC[C@H]2C)c1 [WX48] |  |
| 26 | Cc1nnn(C2CC2)c1-c1cc(N2CCOC[C@H]2C)nc(-c2cc(CO)cc3[nH]ccc23)n1 [WX49] |  |
| 32 | Cc1noc(C)c1-c1cc(N2CCOC[C@H]2C)nc(-c2cc(CO)cc3[nH]ccc23)n1 [WX51] |  |
| 20 | Cc1cc(-c2nc(-c3c(C)nnn3C)cc(N3CCOC[C@H]3C)n2)c2cc[nH]c2c1 [WX52] |  |
| 83 | Cc1cnn(C)c1-c1cc(N2CCOC[C@H]2C)nc(-c2cc(C(=O)O)cc3[nH]ccc23)n1 [WX53] |  |
| 27 | Cc1nnc(C)n1-c1cc(-c2cc(F)cc3[nH]ccc23)nc(N2CCOC[C@H]2C)c1 [WX54] |  |
| 20 | Cc1nnc(C)n1-c1cc(-c2cccc3[nH]ccc23)nc(N2CCOC[C@H]2C)n1 [WX55] |  |
| 46 | Cc1nnc(C)n1-c1cc(-c2cc(F)cc3[nH]ccc23)nc(N2CCOC[C@H]2C)n1 [WX56] |  |
| 28 | Cc1nnc(C)n1-c1cc(-c2cccc3[nH]ccc23)nc(N2CCOC[C@H]2C)c1 [WX57] |  |
